# pIC50: −log10 of the molar value.
# System: 454973-116-R2-J3-PDC spheroids, viability, % test/control
# Test: Anticancer human tumor 454973-116-R2-J3-PDC patient-derived pancreatic carcinoma cell line growth inhibition [GQUAD]
# Conditions: spheroids with HUVEC and MSC; for pIC50: curve of first compound; for viability, T/C: stronger effect = lower value
# Text: DNA G-quadruplex Stabilizer Agents in Combinations in Complex Spheroids
# A high-throughput screen of multi-cell type tumor spheroids was designed to identify active combinations of DNA G-quadruplex stabilizer agents and targeted small molecules. Complex spheroids include a stromal component modeled by human endothelial cells (HUVEC) and fibroblasts modeled by human mesenchymal stem cells (MSCs). The concentration ranges selected for each drug and investigational agent were based upon clinically achievable concentrations if the clinical Cmax of the agent was known.
# Compounds. The drugs and investigational agents: pidnarulex (CX-5461; NSC782164), APTO-253 (NSC789042), BRACO-19 (NSC847499), peposertib (NSC802822), ceralasertib (NSC780249), elimusertib (NSC800525), camonsertib (NSC841442), AZD-1390 (NSC803789), olaparib (NSC753686), talazoparib (NSC767125), ART-558 (NSC835418), sotorasib (NSC818433), MRTX-1133 (NSC836407), SN-38 (NSC673596), topotecan (NSC609699), etoposide (NSC141540), doxorubicin (NSC123127), gemcitabine (NSC613327), 5-fluorouracil (NSC19893), paclitaxel (NSC125973), vemurafenib (NSC761431), panobinostat (NSC761190), R-306465 (JNJ-16241199; NSC773264), adavosertib (NSC754352), TP-3654 (NSC805149), carboplatin (NSC241240), KSQ-4279 (NSC840948), and staurosporine (NSC755774) were obtained from the National Cancer Institute (NCI) Developmental Therapeutics Program Chemical Repository (34). The FDA-approved anticancer drug set is available from the NCI Developmental Therapeutics Program. […] The stock solutions were prepared in dimethyl sulfoxide (DMSO, Sigma-Aldrich, St. Louis, MO, cat. D2650) at 800-fold the tested concentration and stored at -70 degrees C prior to their use. All drugs and investigational agents were tested over a range starting from a high concentration at or near the clinical Cmax and decreasing in half-log increments. If the clinical Cmax for an agent had not been determined, the highest concentration tested was 10 microM.
# 2.3 Cell Culture. All cells were maintained in an incubator at 37 degrees C and 5% CO2 with 95% humidity. The PDC lines were cultured according to standard operating procedures established by the NCI PDMR. All PDCs were thawed and cultured in Matrigel-coated flasks prepared with a working solution of 1X Ham's F-12 nutrient mix, without supplementation (Invitrogen, cat. 11765054), 100 U/mL penicillin-streptomycin (Invitrogen, cat. 15140122), and 2.5% Matrigel (Corning Inc., cat. 354248) for the first three passages. The 857933-349-R-J2-PDC line was cultured in 6C/Colon 1B media, which includes advanced DMEM/F-12 (Thermo Fisher Scientific, cat. 12634028), 10 mM HEPES (Thermo Fisher Scientific, cat. 15630080), 1X GlutaMAX supplement (Thermo Fisher Scientific, cat. 35050061), 0.1 mg/mL primocin (InvivoGen, cat. ant-pm-2), 10% defined fetal bovine serum, heat inactivated (HyClone Laboratories Inc., cat. SH30070.03HI), 50% L-WRN conditioned media (ATCC, cat. CRL-3276), 1.25 mM N-Acetyl-L-cysteine (Sigma-Aldrich, cat. A9165), 10 mM nicotinamide (Sigma-Aldrich, cat. N0636), 1X B-27 supplement (Thermo Fisher Scientific, cat. 17504044), 1X N-2 supplement (Thermo Fisher Scientific, cat. 17502048), 10 microM Y-27632 dihydrochloride (Tocris Bioscience, cat. 1254), and 50 ng/mL human EGF recombinant protein (Thermo Fisher Scientific, cat. PHG0311). The 485176-168-R4-J1-PDC line was cultured in Panc media, which includes all 6C/Colon 1B media components plus 100 ng/mL human FGF-10 (Thermo Fisher Scientific, cat. 100-26), 500 nM SB-431542 (Selleckchem, cat. S1067), and gastrin (Tocris, cat. 3006).
# […]
# [1] = second compound 0.0316 µM, first compound 0.0316 µM
# [2] = second compound 0.0316 µM, first compound 0.1 µM
# [3] = second compound 0.0316 µM, first compound 0.316 µM
# [4] = second compound 0.0316 µM, first compound 1 µM
# [5] = second compound 0.0316 µM, first compound 3.16 µM
# [6] = second compound 0.0316 µM, first compound 10 µM
# [7] = second compound 0.1 µM, first compound 0.0316 µM
# [8] = second compound 0.1 µM, first compound 0.1 µM
# [9] = second compound 0.1 µM, first compound 0.316 µM
# [10] = second compound 0.1 µM, first compound 1 µM
# [11] = second compound 0.1 µM, first compound 3.16 µM
# [12] = second compound 0.1 µM, first compound 10 µM
# [13] = second compound 0.316 µM, first compound 0.0316 µM
# [14] = second compound 0.316 µM, first compound 0.1 µM
# [15] = second compound 0.316 µM, first compound 0.316 µM
# [16] = second compound 0.316 µM, first compound 1 µM
# [17] = second compound 0.316 µM, first compound 3.16 µM
# [18] = second compound 0.316 µM, first compound 10 µM
# [19] = second compound 1 µM, first compound 0.0316 µM
# [20] = second compound 1 µM, first compound 0.1 µM
# [21] = second compound 1 µM, first compound 0.316 µM
# [22] = second compound 1 µM, first compound 1 µM
# [23] = second compound 1 µM, first compound 3.16 µM
# [24] = second compound 1 µM, first compound 10 µM
# [25] = second compound 3.16 µM, first compound 0.0316 µM
# [26] = second compound 3.16 µM, first compound 0.1 µM
# [27] = second compound 3.16 µM, first compound 0.316 µM
# [28] = second compound 3.16 µM, first compound 1 µM
# [29] = second compound 3.16 µM, first compound 3.16 µM
# [30] = second compound 3.16 µM, first compound 10 µM
# [31] = second compound 10 µM, first compound 0.0316 µM
# [32] = second compound 10 µM, first compound 0.1 µM
# [33] = second compound 10 µM, first compound 0.316 µM
# [34] = second compound 10 µM, first compound 1 µM
# [35] = second compound 10 µM, first compound 3.16 µM
# [36] = second compound 10 µM, first compound 10 µM
# 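Note: spheroids exposed to compounds for seven days.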
smiles,measurement,setting,value
CC(C)n1c(=O)n(C)c2cnc3cc(F)c(-c4ccc(OCCCN5CCCCC5)nc4)cc3c21 + CN(C)c1ccc(Nc2c3ccc(NC(=O)CCN4CCCC4)cc3nc3cc(NC(=O)CCN4CCCC4)ccc23)cc1,pIC50,second compound 0.0316 µM,< 5.00
same,pIC50,second compound 0.1 µM,< 5.00
same,pIC50,second compound 0.316 µM,< 5.00
same,pIC50,second compound 1 µM,< 5.00
same,pIC50,second compound 3.16 µM,< 5.00
same,pIC50,second compound 10 µM,5.35
same,"viability, T/C",[1],108%
same,"viability, T/C",[2],94.8%
same,"viability, T/C",[3],104%
same,"viability, T/C",[4],99.2%
same,"viability, T/C",[5],78.7%
same,"viability, T/C",[6],73.5%
same,"viability, T/C",[7],103%
same,"viability, T/C",[8],118%
same,"viability, T/C",[9],95.2%
same,"viability, T/C",[10],97.1%
same,"viability, T/C",[11],68.7%
same,"viability, T/C",[12],76.1%
same,"viability, T/C",[13],103%
same,"viability, T/C",[14],103%
same,"viability, T/C",[15],99.5%
same,"viability, T/C",[16],89.1%
same,"viability, T/C",[17],75.1%
same,"viability, T/C",[18],73.8%
same,"viability, T/C",[19],99.6%
same,"viability, T/C",[20],99.3%
same,"viability, T/C",[21],91.7%
same,"viability, T/C",[22],66.3%
same,"viability, T/C",[23],81.8%
same,"viability, T/C",[24],65.3%
same,"viability, T/C",[25],85.7%
same,"viability, T/C",[26],91.7%
same,"viability, T/C",[27],95.9%
same,"viability, T/C",[28],65.8%
same,"viability, T/C",[29],72.5%
same,"viability, T/C",[30],63.7%
same,"viability, T/C",[31],76.9%
same,"viability, T/C",[32],74.6%
same,"viability, T/C",[33],69%
same,"viability, T/C",[34],61.4%
same,"viability, T/C",[35],61.8%
same,"viability, T/C",[36],34.1%
O=C(c1cc(Cc2n[nH]c(=O)c3ccccc23)ccc1F)N1CCN(C(=O)C2CC2)CC1 + CN(C)c1ccc(Nc2c3ccc(NC(=O)CCN4CCCC4)cc3nc3cc(NC(=O)CCN4CCCC4)ccc23)cc1,pIC50,second compound 0.0316 µM,< 5.00
same,pIC50,second compound 0.1 µM,< 5.00
same,pIC50,second compound 0.316 µM,< 5.00
same,pIC50,second compound 1 µM,< 5.00
same,pIC50,second compound 3.16 µM,< 5.00
same,pIC50,second compound 10 µM,< 5.00
same,"viability, T/C",[1],111%
same,"viability, T/C",[2],95%
same,"viability, T/C",[3],101%
same,"viability, T/C",[4],97.3%
same,"viability, T/C",[5],85.1%
same,"viability, T/C",[6],61.4%
same,"viability, T/C",[7],108%
same,"viability, T/C",[8],96.7%
same,"viability, T/C",[9],99.3%
same,"viability, T/C",[10],93.1%
same,"viability, T/C",[11],79.6%
same,"viability, T/C",[12],60.8%
same,"viability, T/C",[13],104%
same,"viability, T/C",[14],91.6%
same,"viability, T/C",[15],93.6%
same,"viability, T/C",[16],88.2%
same,"viability, T/C",[17],82.6%
same,"viability, T/C",[18],65.1%
same,"viability, T/C",[19],88.5%
same,"viability, T/C",[20],91.9%
same,"viability, T/C",[21],98.2%
same,"viability, T/C",[22],74.5%
same,"viability, T/C",[23],70.7%
same,"viability, T/C",[24],59.3%
same,"viability, T/C",[25],90.7%
same,"viability, T/C",[26],91.7%
same,"viability, T/C",[27],92.7%
same,"viability, T/C",[28],74.1%
same,"viability, T/C",[29],75.2%
same,"viability, T/C",[30],57.1%
same,"viability, T/C",[31],75.8%
same,"viability, T/C",[32],75.2%
same,"viability, T/C",[33],67.9%
same,"viability, T/C",[34],67.4%
same,"viability, T/C",[35],63.5%
same,"viability, T/C",[36],51.7%
